# Results published in US20260315431A1, “NANOMATERIAL ENCAPSULATED BIOFILM INHIBITORS FOR DENTAL CARIES TREATMENT” (THE UAB RESEARCH FOUNDATION, priority 2023, published 2026).
# How the values were obtained:
# [1] = HA5 loading into (PMAA)5 hydrogel (UV-visible spectroscopy); format: physicochemical; conditions: (PMAA)5 hydrogel cubes soaked in 5 mg/mL HA5 in methanol, 48 h
# Method: Encapsulation of HA5 inside (PMAA)5 hydrogels microparticles. Compound HA5 was encapsulated in the (PMAA)5 hydrogel cubes through post-loading by soaking the hydrogels in 5 mg/mL solution of HA5 in methanol for 48 h in the dark (FIGS. 1.7A-B). The free, non-encapsulated HA5 was removed from particle solution by rinsing with HEPES buffer (pH=7.4) five times using centrifugation at 5000 rpm for 10 min. The HA5 quantification was carried out with UV-visible spectroscopy (NanoDrop One C, ThermoFisher) at λ=448 nm using an HA5 calibration curve. The drug solution was analyzed before and after the exposure to the hydrogel particles and the differences in the absorbance spectra were used to determine the loading of the drug into the hydrogel network. […] Freshly extracted, intact third molars with flat surfaces obtained from Dr. Nathaniel Lawson's lab (UAB School of Dentistry, IRB-300001291) were used in these studies. The AFM silicon probes NSG30 (NT-MDT, resonance frequency 240-440 kHz, force constant 22-100 N m^−1, tip radii is 10 nm, scan rate is 0.5 Hz) were used for imaging the tooth surfaces in tapping mode before and after hydrogel adhesion. […] The height of the dried hydrogel cubes was determined using section profiles, which indicated an average particle height of 1.3±0.2 μm. […]
# S. mutans UA159 = assay: Gnotobiotic rat model of dental caries (PEHA5 / HA5 study, Example 2); format: in vivo, gnotobiotic rats infected with S. mutans UA159; parameters: key to Buccal Mean Caries Scores (±SEM) E / Buccal Mean Caries Scores (±SEM) Ds / Buccal Mean Caries Scores (±SEM) Dm / Buccal Mean Caries Scores (±SEM) Dx / Sulcal Mean Caries Scores (± SEM) E / Sulcal Mean Caries Scores (± SEM) Ds / Sulcal Mean Caries Scores (± SEM) Dm / Sulcal Mean Caries Scores (± SEM) Dx / Proximal Mean Caries Scores (± SEM) E / Proximal Mean Caries Scores (± SEM) Ds: caries scored by the Keyes method; conditions: 100 μM
# Text: The effect of PEHA5 on S. mutans colonization and virulence was compared side-by-side with HA5 using a well-established gnotobiotic rat model of dental caries^[50-54]. A (vehicle+infection only) group was included as a negative control. All rats from the experimental groups and from the control group were colonized with S. mutans UA159. […] Similar reductions in caries scores were also observed in sulcal caries scores and proximal caries scores (Table 5). We were unable to record the effect of the treatment on dentinal moderate (Dm) and dentinal extensive (Dx) scores in the proximal area due to the absence of dentinal lesions in the control and treated groups.
# We used Fischer 344 rats that were bred and maintained in trexler isolators for this experiment. Male and female rat pups were removed from isolators at 20 days of age and randomly assigned into treatment groups of 5 rats/group in cages with filter tops. Rats were then infected with S. mutans UA159 strain by oral swabbing daily for four consecutive days with a fresh overnight culture of S. mutans UA159. Rats were provided with caries promoting Teklad Diet 305 containing […] (Harlan Laboratories, Inc., Indianapolis, IN) and sterile drinking water ad libitum. Oral swabs were taken 5 days post-infection and plated on Todd Hewitt (TH) agar plates and incubated at 37° C. in an environment of 5% CO2 in the air to confirm colonization. Rats were weighed at weaning and then weekly throughout the experiment. One-week post-infection, the molars of the rats were brushed twice daily for 4 weeks with the test compounds using camel-hair brushes. Four treatment groups used in this study were: 1) HA5 (100 μM); 2) […] (100 μM); 3) NaF (250 ppm); and 4) infected untreated rats. Drinking water was withheld for 60 min following each treatment with the compound. Animals were weighed at weaning and at the termination of the experiment. On day 60, the rats were sacrificed using CO2 followed by cervical dislocation or bilateral thoracotomy. The mandibles were surgically removed and cleaned of excess tissue to assess the level of bacteria present and the extent of caries formation. The right mandible from each rat was placed in a tube containing phosphate buffer (3 mL), placed on ice and sonicated (10 sec) to release bacteria from the molars. Each sample was serially diluted, plated on blood (BAP) and mitis-salivarius (MS) agar plates and incubated in an environment of 5% CO2 in air at 37° C. to quantify the level of total bacteria and S. mutans present in the plaque. The right and left mandibles from each rat were then placed in 95% ethanol for 24 h. The mandibles will be cleaned and stained overnight with murexide solution. After drying, the mandibles were sectioned and scored for caries activity using the Keyes method Caries scores were recorded for the buccal, sulcal and proximal molar surfaces individually so that differences among the surfaces can be distinguished. Statistical significance in the mean caries scores, colony-forming units (CFU)/mandible and body weights between groups of rats were determined by one-way analysis of variance (ANOVA) with the Tukey-Kramer multiple comparison test using the InStat program (GraphPad Prism 10.0.2.). When determining the statistical significance between the two groups, an unpaired t-test was applied. Differences between groups were considered significant at a P-value<0.05.
structure (smiles),measurement,setting,value
"O=C1/C(=C/c2cc(O)c(O)cc2O)Oc2ccccc21 [HA5, 2-[(2′,4′,5′-Trihydroxyphenyl)methylidene]-2,3-dihydro-1-benzofuran-3-one]",loading capacity,[1],5.5×10^−3 ng of HA5 per particle
same,effect on bacterial colonization,S. mutans UA159; 4-week treatment,did not affect bacterial colonization significantly
same,reduction in caries scores,S. mutans UA159; 4-week treatment,significant reductions in buccal caries scores
same,CFU/mL BAP,S. mutans UA159; Blood agar plate,5.2 ± 1.4 CFU/mL (×10^5)
same,CFU/mL MS,S. mutans UA159; Mitis-Salivarius agar,5.5 ± 2.6 CFU/mL (×10^5)
same,Buccal Mean Caries Scores (±SEM) Dx,"S. mutans UA159; dentinal extensive, 4 weeks",1.4 ± 0.4
same,Sulcal Mean Caries Scores (± SEM) Dx,"S. mutans UA159; dentinal extensive, 4 weeks",4.8 ± 0.9
same,Buccal Mean Caries Scores (±SEM) Dm,"S. mutans UA159; dentinal moderate, 4 weeks",2.8 ± 0.5
same,Sulcal Mean Caries Scores (± SEM) Dm,"S. mutans UA159; dentinal moderate, 4 weeks",9.4 ± 0.5
same,Buccal Mean Caries Scores (±SEM) Ds,"S. mutans UA159; dentinal slight, 4 weeks",6.4 ± 1.0
same,Proximal Mean Caries Scores (± SEM) Ds,"S. mutans UA159; dentinal slight, 4 weeks",3.4 ± 0.6
same,Sulcal Mean Caries Scores (± SEM) Ds,"S. mutans UA159; dentinal slight, 4 weeks",15.0 ± 0.9
same,Buccal Mean Caries Scores (±SEM) E,"S. mutans UA159; enamel, 4 weeks",9.0 ± 0.6
same,Proximal Mean Caries Scores (± SEM) E,"S. mutans UA159; enamel, 4 weeks",5.2 ± 0.5
same,Sulcal Mean Caries Scores (± SEM) E,"S. mutans UA159; enamel, 4 weeks",20.6 ± 0.8
